Assay results reported in ChEMBL document CHEMBL6177980 (J Med Chem, 2025).
The source made the active and inactive calls. The rule behind the calls is not given here.

Assays:
[1] = tested on: Mammarenavirus choriomeningitidis; test: Antiviral activity against LCMV infected in C57BL/6-Prf1tm1Sdz/J mouse assessed as reduction in viral titer in liver treated orally once daily for 7 days by RT-qPCR analysis; type: functional, organism-based; conditions: dose 1-5 mg/kg, route po, time 7.0 day
[2] = tested on: Mammarenavirus choriomeningitidis; test: In vivo antiviral activity against LCMV infected in C57BL/6-Prf1tm1Sdz/J mouse assessed as void of inflammatory cell inflammation in spleen at 1 to 5 mg/kg, po qd for 7 days; type: functional, organism-based; conditions: dose 1-5 mg/kg, time 7.0 day
[3] = Prodrug conversion in C57BL/6J mouse plasma assessed as parent nucleoside metabolite formation administered orally or intravenously; type: ADME, cell-free; conditions: po
[4] = tested on: Mammarenavirus choriomeningitidis; test: Antiviral activity against LCMV infected in C57BL/6-Prf1tm1Sdz/J mouse assessed as reduction in viral titer in spleen treated orally once daily for 7 days by RT-qPCR analysis; type: functional, organism-based; conditions: dose 1-5 mg/kg, route po, time 7.0 day
[5] = tested on: Mammarenavirus choriomeningitidis; test: Antiviral activity against LCMV infected in C57BL/6-Prf1tm1Sdz/J mouse assessed as reduction in viral copy number in kidney treated orally once daily for 7 days by RT-qPCR analysis; type: functional, organism-based; conditions: dose 1-5 mg/kg, route po, time 7.0 day
[6] = tested on: Mammarenavirus choriomeningitidis; test: Antiviral activity against LCMV infected in C57BL/6-Prf1tm1Sdz/J mouse assessed as reduction in viral copy number in spleen treated orally once daily for 7 days by RT-qPCR analysis; type: functional, organism-based; conditions: dose 1-5 mg/kg, route po, time 7.0 day
[7] = Cytotoxicity against African green monkey Vero cells; type: toxicity, cell-based; conditions: chlorocebus sabaeus
[8] = Prodrug conversion in C57BL/6J mouse liver microsomes assessed as parent nucleoside metabolite formation at 1 uM measured up to 60 mins in presence of NADPH/UDPGA by LC-MS/MS analysis; type: ADME, Microsome; conditions: 1 h
[9] = Toxicity in Sprague-Dawley rat assessed as drug tolerance administered as single dose; conditions: in vivo
[10] = tested on: Mammarenavirus choriomeningitidis; test: In vivo antiviral activity against LCMV infected in C57BL/6-Prf1tm1Sdz/J mouse assessed as appearance of regular splenic nodule structure at 1 to 5 mg/kg, po qd for 7 days; type: functional, organism-based; conditions: dose 1-5 mg/kg, time 7.0 day
[11] = tested on: HepG2; test: Mitochondrial toxicity in human HepG2 cells cultured in glucose containing medium at 100 uM; type: cell-based; conditions: hepg2, 100 µM
[12] = Prodrug conversion in Sprague-Dawley rat plasma assessed as parent nucleoside metabolite formation at 1 uM measured up to 60 mins by LC-MS/MS analysis; type: ADME, cell-free; conditions: 1 h
[13] = Stability of compound at pH 4.0 assessed as change in purity at 1 mg/ml incubated for 24 hrs by HPLC analysis; type: physicochemical; conditions: buffer, pH 4, 24 h
[14] = Prodrug conversion in C57BL/6J mouse assessed as half life of 4'-Fluorouridine metabolite treated orally by LC-MS/MS analysis; type: ADME; conditions: in vivo, po
[15] = Stability of compound at pH 4.0 assessed as change in purity at 1 mg/ml incubated for 12 hrs by HPLC analysis; type: physicochemical; conditions: buffer, pH 4, 12 h
[16] = tested on: Mammarenavirus choriomeningitidis; test: Antiviral activity against LCMV infected in C57BL/6-Prf1tm1Sdz/J mouse assessed as reduction in viral copy number in liver treated orally once daily for 7 days by RT-qPCR analysis; type: functional, organism-based; conditions: dose 1-5 mg/kg, route po, time 7.0 day
[17] = Prodrug conversion in Sprague-Dawley rat assessed as half life of 4'-Fluorouridine metabolite treated orally or intravenously by LC-MS/MS analysis; type: ADME; conditions: in vivo, po
[18] = Stability of compound at pH 6.8 assessed as change in purity at 1 mg/ml incubated for 24 hrs by HPLC analysis; type: physicochemical; conditions: buffer, pH 6.8, 24 h
[19] = Prodrug conversion in Beagle dog plasma assessed as parent nucleoside metabolite formation administered orally or intravenously; type: ADME, cell-free, Canis lupus familiaris; conditions: po
[20] = Prodrug conversion in Sprague-Dawley rat assessed as 4'-Fluorouridine metabolite formation in small intestine at 6 mg/kg, po measured for 0.5 to 24 hrs by LC-MS/MS analysis; type: ADME, organism-based; conditions: in vivo, time 0.5-24 hrs
[21] = Prodrug conversion in Sprague-Dawley rat assessed as Cmax of 4'-Fluorouridine metabolite at 6 mg/kg/day, po treated for 7 days by LC-MS/MS analysis; type: ADME, organism-based; conditions: in vivo, 168 h, time 7 day
[22] = tested on: Mammarenavirus choriomeningitidis; test: In vivo antiviral activity against LCMV infected in C57BL/6-Prf1tm1Sdz/J mouse assessed as void of necrosis in spleen at 1 to 5 mg/kg, po qd for 7 days; type: functional, organism-based; conditions: dose 1-5 mg/kg, time 7.0 day
[23] = Prodrug conversion in Beagle dog assessed as volume of distribution at steady state of 4'-Fluorouridine metabolite treated orally or intravenously by LC-MS/MS analysis; type: ADME, Canis lupus familiaris; conditions: in vivo, po
[24] = Prodrug conversion in Beagle dog assessed as AUC (0 to t) of 4'-Fluorouridine metabolite at 1 mg/kg, po by LC-MS/MS analysis; type: ADME, organism-based, Canis lupus familiaris; conditions: in vivo
[25] = Prodrug conversion in Beagle dog liver microsomes assessed as parent nucleoside metabolite formation at 1 uM measured up to 60 mins in presence of NADPH/UDPGA by LC-MS/MS analysis; type: ADME, Canis lupus familiaris, Microsome; conditions: 1 h
[26] = Prodrug conversion in Sprague-Dawley rat assessed as AUC (0 to t) of 4'-Fluorouridine metabolite at 2 mg/kg, iv by LC-MS/MS analysis; type: ADME, organism-based; conditions: in vivo
[27] = Prodrug conversion in Sprague-Dawley rat assessed as 4'-Fluorouridine metabolite formation in liver at 6 mg/kg, po measured for 0.5 to 24 hrs by LC-MS/MS analysis; type: ADME, organism-based; conditions: in vivo, time 0.5-24 hrs
[28] = AUC (0 to t) in fasted Sprague-Dawley rat at 23 mg/kg, po by LC-MS/MS analysis; type: ADME, organism-based; conditions: in vivo
[29] = Prodrug conversion in Sprague-Dawley rat assessed as Cmax of 4'-Fluorouridine metabolite at 20 mg/kg, po by LC-MS/MS analysis; type: ADME, organism-based; conditions: in vivo
[30] = Prodrug conversion in Sprague-Dawley rat assessed as 4'-Fluorouridine metabolite formation in kidney at 6 mg/kg, po measured for 0.5 to 24 hrs by LC-MS/MS analysis; type: ADME, organism-based; conditions: in vivo, time 0.5-24 hrs
[31] = Prodrug conversion in C57BL/6J mouse assessed as AUC (0 to t) of 4'-Fluorouridine metabolite at 2 mg/kg, po by LC-MS/MS analysis; type: ADME, organism-based; conditions: in vivo
[32] = tested on: Mammarenavirus choriomeningitidis; test: In vivo antiviral activity against LCMV infected in C57BL/6-Prf1tm1Sdz/J mouse assessed as appearance of clear boundary between red and white pulp in spleen at 1 to 5 mg/kg, po qd for 7 days; type: functional, organism-based; conditions: dose 1-5 mg/kg, time 7.0 day
[33] = Oral bioavailability in fasted Cynomolgus monkey administered orally by LC-MS/MS analysis; type: ADME, organism-based, Macaca fascicularis; conditions: in vivo
[34] = Prodrug conversion in Sprague-Dawley rat assessed as 4'-Fluorouridine metabolite formation in lung at 6 mg/kg, po measured for 0.5 to 24 hrs by LC-MS/MS analysis; type: ADME, organism-based; conditions: in vivo, time 0.5-24 hrs
[35] = Prodrug conversion in Beagle dog plasma assessed as parent nucleoside metabolite formation at 1 uM measured up to 60 mins by LC-MS/MS analysis; type: ADME, cell-free, Canis lupus familiaris; conditions: 1 h
[36] = Prodrug conversion in Beagle dog assessed as Cmax of 4'-Fluorouridine metabolite at 10 mg/kg, po by LC-MS/MS analysis; type: ADME, organism-based, Canis lupus familiaris; conditions: in vivo
[37] = Prodrug conversion in Beagle dog assessed as AUC (0 to t) of 4'-Fluorouridine metabolite at 10 mg/kg, po by LC-MS/MS analysis; type: ADME, organism-based, Canis lupus familiaris; conditions: in vivo

For `CC(C)C(=O)OC[C@@]1(F)O[C@@H](n2ccc(=O)n(COC(=O)c3cccnc3)c2=O)[C@H](OC(=O)C(C)C)[C@@H]1OC(=O)C(C)C`, the Activity [1] was “Dose-dependent-effect”, the Activity [2] was “Active” and the Drug metabolism [3] was “metabolite_detected”. The Activity [4] was “Dose-dependent-effect”, the Activity [5] was “Dose-dependent-effect” and the Activity [6] was “Dose-dependent-effect”. For the same molecule, the CC50 [7] was > 100 µM, the Drug metabolism [8] was “metabolite_detected” and the Activity [9] was “Non-toxic”. For the same molecule, the Activity [10] was “Active”, the Activity [11] was “Non-toxic” and the Drug metabolism [12] was “metabolite_detected”. It also gave an Activity [13] of -0.1%, a t1/2 [14] of 12 h and an Activity [15] of 0%. For the same molecule, the Activity [16] was “Dose-dependent-effect”, the t1/2 [17] was 15 h and the Activity [18] was -0.6%. For the same molecule, the Drug metabolism [19] was “metabolite_detected”, the Drug metabolism [20] was “metabolite_detected” and the Cmax [21] was 383 ng/mL. For the same molecule, the Activity [22] was “Active”, the Vdss [23] was 3.07 L/kg and the AUCt [24] was 257 ng·h/mL. The Drug metabolism [25] was “metabolite_detected”, the AUCt [26] was 1056 ng·h/mL and the Drug metabolism [27] was “metabolite_detected”. For the same molecule, the AUC(0-t) [28] was 11800 ng·h/mL, the Cmax [29] was 1142 ng/mL and the Drug metabolism [30] was “metabolite_detected”. For the same molecule, the AUCt [31] was 826 ng·h/mL, the Activity [32] was “Active” and the bioavailability [33] was 75.2%. For the same molecule, the Drug metabolism [34] was “metabolite_detected”, the Drug metabolism [35] was “metabolite_detected” and the Cmax [36] was 1501 ng/mL. The AUCt [37] was 3601 ng·h/mL.
